Experimental data: patent US6599896B1 (Les Laboratoires Servier, priority 1999, dated 2003)

What was measured:
[1] = test system: cortical neurons in culture; assay: In vitro neurotoxicity caused by hypoxia in cortical cells (LDH activity); assay type: cell-based, rat; conditions: 20 μM; 3 hours hypoxia, LDH after 24 hours
Procedure: (§1) Cortical cells are extracted from Sprague-Dawley rat foetuses and cultured in MEM (minimum essential medium) containing 5% horse serum and 5% calf foetus serum.
After morphological examination of the cells, the culture supernatants are collected and the lactate dehydrogenase (LDH) activity therein is measured.

[2] = test system: cortical neurons in culture; assay: In vitro neurotoxicity caused by glutamate in cortical cells (LDH activity); assay type: cell-based, rat; conditions: 20 μM; 1 mM glutamate 15 minutes
Procedure: as §1
Just before treatment with glutamate, the culture medium is replaced by 300 μl of saline solution buffered with HEPES. The cells are incubated for 15 minutes together with 1 mM glutamate. The culture media are then replaced by 200 μl of MEM without serum and the cells are incubated at 37° C. for 24 hours. After morphological examination of the cells, the culture supernatants are collected and the lactate dehydrogenase (LDH) activity therein is measured.

motoneurons = conditions: Duong et al., Br. J. Pharmacol., 128, 1385-1392; cited from earlier work
mitochondrial genome = assay: In vivo expression of genes implicated in oxidative stress (RT-PCR, amygdala); conditions: rat, 15 mg/kg i.p. for 21 days
Procedure: After sacrifice of the animals and removal of the brains, the total RNA of the amygdala region is extracted and then subjected to an RT-PCR test. In brief, reverse transcription is performed on the extracted RNA, the transcription products are then amplified by chain polymerisation (PCR) and then subjected to high-resolution polyacrylamide gel electrophoresis. The bands of interest are removed from the gel, re-amplified, sequenced and analysed.

astrocytes in culture = assay: ATP levels associated with hypoxia in astrocytes maintained in culture; assay type: cell-based, rat; conditions: hypoxia 24 hours
Procedure: Cultures of astrocytes are obtained using new-born rats according to the technique described by Booher J. and Sensenbrenner M. (Neurobiology 2, 97-105, […]). They are used three weeks after being placed in culture. […] The concentration of ATP is determined by luminescence and expressed in picomoles of ATP per mg of cellular proteins. The experiments are conducted in triplicate.

AMPA/kainate receptors = assay: Patch clamp: current induced by kainate in telencephalic cells in primary culture; assay type: cell-based, rat
Procedure: Telencephalic cells of 16.5 day-old Wistar rat fetuses were cultured for 12 days. Patch clamp experiments were then conducted at ambient temperature in the following medium: 5 mM KCl, 140 mM NaCl, 10 mM Hepes, 2 mM MgCl2, 2 mM CaCl2 and 10 mM D-glucose (pH=7.3), and the micropipettes were filled with 140 mM KCl, 4 mM NaCl, 10 mM Hepes, 5 mM EGTA and 0.5 mM CaCl2 (pH=7.2).
That effect is measured by the patch clamp technique.

[3] = test system: purified embryonic motoneurons; assay: Death of motoneurons deprived of growth factors (survival count); assay type: cell-based, rat; conditions: BDNF 1 ng/ml; 2.5 days of culture
Procedure: Pregnant Sprague-Dawley rats are sacrificed on the 14th day of embryo life. The motoneurons of the embryos are purified according to the method published by C.
The motoneurons are seeded a density of approximately 1000 cells per 16-mm well and are cultured in Neurobasal, supplemented by B27 and horse serum. […] The surviving motoneurons are counted directly.
After 2.5 days of culture, motoneurons are counted in 2 areas of each of the 4 wells. Absolute value per area are presented (mean+/−s.e.m., n=8).

Molecule: C[C@]12N[C@H](Cc3ccccc31)c1ccccc12 [MK-801]
- protection against the effects of hypoxia (LDH activity) [1]: 86.3%
- protection against toxicity caused by glutamate (LDH activity) [2]: total protection

Molecule: Cl.FC(F)(F)c1cccc(C2=CCN(CCc3ccc4ccccc4c3)CC2)c1 [SR57746A]
- activity on the survival of motoneurons in vitro (motoneurons): active

Molecule: CN1c2ccccc2C(NCCCCCCC(=O)O)c2ccc(Cl)cc2S1(=O)=O (stereo not drawn) [tianeptine]
- expression of mitochondrial genes in the amygdala (mitochondrial genome): overexpression of the mitochondrial genes of NADH ubiquinone reductase (sub-units 2 and 5) and also of genes coding for 16S rRNA, leu-tRNA and val-tRNA
- percentage protection of astrocytes (ATP level) (astrocytes in culture; 10 μM (maximal)): 68%
- protection of astrocytes (ATP level) (astrocytes in culture; 0.1-1-10 μM, FIG. 4): protects astrocytes in culture in a dose-dependent manner
- effect on the current entering the cells, compound on its own (direct agonism) (AMPA/kainate receptors; 10 μM, without kainate): no effect
- effect on the current induced by kainate (AMPA/kainate receptors; 4, 10 and 25 μM, kainate 250 μM, FIG. 1): increases the current induced by kainate

B1: Brain-Derived Neurotrophic Factor (protein, UniProt P23560 19-247, looked up)
Neurotrophic factor BDNF …: APMKEANIRGQGGLAYPGVRTHGTLESVNGPKAGSRGLTSLADTFEHVIEELLDEDQKVRPNEENNKDADLYTSRVMLSSQVPLEPPLLFLLEEYKNYLDAANMSMRVRRHSDPARRGELSVCDSISEWVTAADKKTAVDMSGGTVTVLEKVPVSKGQLKQYFYETKCNPMGYTKEGCRGIDKRHWNSQCRTTQSYVRALTMDSKKRIGWRFIRIDTSCVCTLTIKRGR
notes: growth factor, 1 ng/ml, positive control for motoneuron survival
- survival of motoneurons [3]: protect the motoneurons from cell death
